Columns and labels:
Assay in all cases: relative viability (nuclei count vs DMSO), 5 days (fraction); higher = more cells survive
NCI-H2009 = system: NCI-H2009
How it was run: (§1)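 A single step with final 0.05% Triton X-100, 1% formaldehyde and 1 ug/ml Hoechst fixed the cells and stained nuclei 5 days after treatment. Lung cancer cell lines in 1536-well plates had been treated by pin tool the day after seeding with one drug alone or a fixed anchor-drug dose plus five library-drug doses (not always all listed) in √10 steps, and nuclei were counted on 4× images. Relative viability is the ratio of nuclei in treated wells to nuclei in vehicle wells, taken as the median of duplicate plates.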

NCI-H661 = system: NCI-H661
How it was run: as §1

NCI-H1648 = system: NCI-H1648
How it was run: as §1

IA-LM = system: IA-LM
How it was run: as §1

NCI-H2342 = system: NCI-H2342
How it was run: as §1

Calu-6 = system: Calu-6
How it was run: as §1

HCC-78 = system: HCC-78
How it was run: as §1

EBC-1 = system: EBC-1
How it was run: as §1

NCI-H1299 = system: NCI-H1299
How it was run: as §1

NCI-H460 = system: NCI-H460
How it was run: as §1

A549 = system: A549
How it was run: as §1

NCI-H1703 = system: NCI-H1703
How it was run: as §1

NCI-H522 = system: NCI-H522
How it was run: as §1

## CCN(CC)CCCCNc1ncc2cc(-c3cc(OC)cc(OC)c3)c(NC(=O)NC(C)(C)C)nc2n1 + O=C(c1cc(Cc2n[nH]c(=O)c3ccccc23)ccc1F)N1CCN(C(=O)C2CC2)CC1 [Olaparib] (partner 8 µM)
NCI-H2009; first compound 0.01 µM
  relative viability: 0.828
NCI-H2009; first compound 0.03162 µM
  relative viability: 0.696
NCI-H2009; first compound 0.1 µM
  relative viability: 0.699
NCI-H2009; first compound 0.3162 µM
  relative viability: 0.75
NCI-H2009; first compound 1 µM
  relative viability: 0.7
NCI-H661; first compound 0.01 µM
  relative viability: 0.702
NCI-H661; first compound 0.03162 µM
  relative viability: 0.713
NCI-H661; first compound 0.1 µM
  relative viability: 0.788
NCI-H661; first compound 0.3162 µM
  relative viability: 0.822
NCI-H661; first compound 1 µM
  relative viability: 0.739
NCI-H1648; first compound 0.01 µM
  relative viability: 0.991
NCI-H1648; first compound 0.03162 µM
  relative viability: 0.767
NCI-H1648; first compound 0.1 µM
  relative viability: 0.781
NCI-H1648; first compound 0.3162 µM
  relative viability: 0.703
NCI-H1648; first compound 1 µM
  relative viability: 0.648
IA-LM; first compound 0.01 µM
  relative viability: 0.821
IA-LM; first compound 0.03162 µM
  relative viability: 0.88
IA-LM; first compound 0.1 µM
  relative viability: 0.946
IA-LM; first compound 0.3162 µM
  relative viability: 0.762
IA-LM; first compound 1 µM
  relative viability: 0.936
NCI-H2342; first compound 0.01 µM
  relative viability: 0.476
NCI-H2342; first compound 0.03162 µM
  relative viability: 0.437
NCI-H2342; first compound 0.1 µM
  relative viability: 0.459
NCI-H2342; first compound 0.3162 µM
  relative viability: 0.509
NCI-H2342; first compound 1 µM
  relative viability: 0.519
Calu-6; first compound 0.03162 µM
  relative viability: 0.583
Calu-6; first compound 0.1 µM
  relative viability: 0.627
Calu-6; first compound 0.3162 µM
  relative viability: 0.694
Calu-6; first compound 1 µM
  relative viability: 0.556
HCC-78; first compound 0.01 µM
  relative viability: 0.82
HCC-78; first compound 0.03162 µM
  relative viability: 0.782
HCC-78; first compound 0.1 µM
  relative viability: 0.802
HCC-78; first compound 0.3162 µM
  relative viability: 0.94
HCC-78; first compound 1 µM
  relative viability: 0.771
EBC-1; first compound 0.01 µM
  relative viability: 0.738
EBC-1; first compound 0.03162 µM
  relative viability: 0.684
EBC-1; first compound 0.1 µM
  relative viability: 0.779
EBC-1; first compound 0.3162 µM
  relative viability: 0.824
EBC-1; first compound 1 µM
  relative viability: 0.705
NCI-H1299; first compound 0.01 µM
  relative viability: 1.03
NCI-H1299; first compound 0.03162 µM
  relative viability: 0.991
NCI-H1299; first compound 0.1 µM
  relative viability: 1.01
NCI-H1299; first compound 0.3162 µM
  relative viability: 1.04
NCI-H1299; first compound 1 µM
  relative viability: 0.998
NCI-H460; first compound 0.01 µM
  relative viability: 0.462
NCI-H460; first compound 0.03162 µM
  relative viability: 0.514
NCI-H460; first compound 0.1 µM
  relative viability: 0.52
NCI-H460; first compound 0.3162 µM
  relative viability: 0.57
NCI-H460; first compound 1 µM
  relative viability: 0.43
A549; first compound 0.01 µM
  relative viability: 0.273
A549; first compound 0.03162 µM
  relative viability: 0.367
A549; first compound 0.1 µM
  relative viability: 0.318
A549; first compound 0.3162 µM
  relative viability: 0.32
A549; first compound 1 µM
  relative viability: 0.349
NCI-H1703; first compound 0.01 µM
  relative viability: 0.313
NCI-H1703; first compound 0.03162 µM
  relative viability: 0.421
NCI-H1703; first compound 0.1 µM
  relative viability: 0.52
NCI-H1703; first compound 0.3162 µM
  relative viability: 0.383
NCI-H1703; first compound 1 µM
  relative viability: 0.388
NCI-H522; first compound 0.01 µM
  relative viability: 0.687
NCI-H522; first compound 0.03162 µM
  relative viability: 0.544
NCI-H522; first compound 0.1 µM
  relative viability: 0.708
NCI-H522; first compound 0.3162 µM
  relative viability: 0.85
NCI-H522; first compound 1 µM
  relative viability: 0.663

## CCN(CC)CCCCNc1ncc2cc(-c3cc(OC)cc(OC)c3)c(NC(=O)NC(C)(C)C)nc2n1 + NC(=O)Nc1cc(-c2cccc(F)c2)sc1C(=O)N[C@H]1CCCNC1 [AZD7762] (partner 0.2 µM)
NCI-H1648; first compound 0.01 µM
  relative viability: 0.69
NCI-H1648; first compound 0.03162 µM
  relative viability: 0.688
NCI-H1648; first compound 0.1 µM
  relative viability: 0.757
NCI-H1648; first compound 0.3162 µM
  relative viability: 0.583
NCI-H1648; first compound 1 µM
  relative viability: 0.445
NCI-H2342; first compound 0.01 µM
  relative viability: 0.44
NCI-H2342; first compound 0.03162 µM
  relative viability: 0.511
NCI-H2342; first compound 0.1 µM
  relative viability: 0.482
NCI-H2342; first compound 0.3162 µM
  relative viability: 0.558
NCI-H2342; first compound 1 µM
  relative viability: 0.485
HCC-78; first compound 0.01 µM
  relative viability: 0.394
HCC-78; first compound 0.03162 µM
  relative viability: 0.647
HCC-78; first compound 0.1 µM
  relative viability: 0.726
HCC-78; first compound 0.3162 µM
  relative viability: 0.745
HCC-78; first compound 1 µM
  relative viability: 0.549
NCI-H460; first compound 0.01 µM
  relative viability: 0.607
NCI-H460; first compound 0.03162 µM
  relative viability: 0.739
NCI-H460; first compound 0.1 µM
  relative viability: 0.716
NCI-H460; first compound 0.3162 µM
  relative viability: 0.821
NCI-H460; first compound 1 µM
  relative viability: 0.4
NCI-H1703; first compound 0.03162 µM
  relative viability: 0.0943
NCI-H1703; first compound 0.1 µM
  relative viability: 0.12
NCI-H1703; first compound 0.3162 µM
  relative viability: 0.143
NCI-H1703; first compound 1 µM
  relative viability: 0.112
NCI-H522; first compound 0.01 µM
  relative viability: 0.772
NCI-H522; first compound 0.03162 µM
  relative viability: 0.831
NCI-H522; first compound 0.1 µM
  relative viability: 0.846
NCI-H522; first compound 0.3162 µM
  relative viability: 0.781
NCI-H522; first compound 1 µM
  relative viability: 0.88

## COc1nc(C)cnc1NS(=O)(=O)c1cccnc1-c1ccc(-c2nnco2)cc1 [Zibotentan] + O=C(CCCCCCC(=O)Nc1ccccc1)NO [Vorinostat] (partner 1 µM)
NCI-H2009; first compound 0.08 µM
  relative viability: 0.705
NCI-H2009; first compound 0.253 µM
  relative viability: 0.705
NCI-H2009; first compound 0.8 µM
  relative viability: 0.72
NCI-H2009; first compound 2.53 µM
  relative viability: 0.893
NCI-H661; first compound 0.08 µM
  relative viability: 0.823
NCI-H661; first compound 0.253 µM
  relative viability: 0.766
NCI-H661; first compound 0.8 µM
  relative viability: 0.827
NCI-H661; first compound 2.53 µM
  relative viability: 0.844
NCI-H1648; first compound 0.08 µM
  relative viability: 0.574
NCI-H1648; first compound 0.253 µM
  relative viability: 0.331
NCI-H1648; first compound 0.8 µM
  relative viability: 0.54
NCI-H1648; first compound 2.53 µM
  relative viability: 0.483
IA-LM; first compound 0.08 µM
  relative viability: 0.881
IA-LM; first compound 0.253 µM
  relative viability: 0.981
IA-LM; first compound 0.8 µM
  relative viability: 0.9
IA-LM; first compound 2.53 µM
  relative viability: 0.939
NCI-H2342; first compound 0.08 µM
  relative viability: 0.832
NCI-H2342; first compound 0.253 µM
  relative viability: 0.778
NCI-H2342; first compound 0.8 µM
  relative viability: 0.778
NCI-H2342; first compound 2.53 µM
  relative viability: 0.678
HCC-78; first compound 0.08 µM
  relative viability: 0.482
HCC-78; first compound 0.253 µM
  relative viability: 0.347
HCC-78; first compound 0.8 µM
  relative viability: 0.382
HCC-78; first compound 2.53 µM
  relative viability: 0.48
NCI-H460; first compound 0.08 µM
  relative viability: 0.673
NCI-H460; first compound 0.253 µM
  relative viability: 0.541
NCI-H460; first compound 0.8 µM
  relative viability: 0.739
NCI-H460; first compound 2.53 µM
  relative viability: 0.719
NCI-H522; first compound 0.08 µM
  relative viability: 0.928
NCI-H522; first compound 0.253 µM
  relative viability: 0.887
NCI-H522; first compound 0.8 µM
  relative viability: 1.03
NCI-H522; first compound 2.53 µM
  relative viability: 0.946

Source: the supplement of paper PMC10307832
